In the supplement of paper PMC11061612:

How the values were obtained:
Test in all cases: Bliss excess, mean over the matrix (fraction); higher = more synergy
[1] = test system: OV-56 (Ovarian Carcinoma)
How it was run: (§1)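 Bliss excess equals the observed combination effect minus the expected value EA + EB − EA·EB, where EA and EB are the effects of each agent alone. Combination Emax is the second-highest inhibition within the matrix. Inhibition was scaled from CellTiter-Glo 2.0 luminescence, with 0 set by vehicle wells and 1 by blank wells, after 72 hours of two-drug dosing of cells plated in 1536-well plates.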

[2] = test system: HeLa (Cervical Carcinoma)
How it was run: as §1

[3] = test system: OVCAR-5 (Ovarian Carcinoma)
How it was run: as §1

[4] = test system: KMRC-20 (Kidney Carcinoma)
How it was run: as §1

[5] = test system: KYAE-1 (Esophageal Adenocarcinoma)
How it was run: as §1

KS-1 (Glioblastoma) = test system: KS-1 (Glioblastoma)
How it was run: as §1

[6] = test system: ESS-1 (Other Solid Carcinomas)
How it was run: as §1

[7] = test system: BE-13 (T-Lymphoblastic Leukemia)
How it was run: as §1

[8] = test system: HuH-7 (Hepatocellular Carcinoma)
How it was run: as §1

CAL-72 (Osteosarcoma) = test system: CAL-72 (Osteosarcoma)
How it was run: as §1

[9] = test system: CAL-33 (Oral Cavity Carcinoma)
How it was run: as §1

BE2-M17 (Neuroblastoma) = test system: BE2-M17 (Neuroblastoma)
How it was run: as §1

[10] = test system: NCI-H1568 (Lung Adenocarcinoma)
How it was run: as §1

[11] = test system: MHH-CALL-2 (B-Lymphoblastic Leukemia)
How it was run: as §1

[12] = test system: LS-123 (Colorectal Carcinoma)
How it was run: as §1

LOXIMVI (Melanoma) = test system: LOXIMVI (Melanoma)
How it was run: as §1

[13] = test system: LCLC-97TM1 (Non-Small Cell Lung Carcinoma)
How it was run: as §1

[14] = test system: LNZTA3WT4 (Low Grade Glioma)
How it was run: as §1

[15] = test system: L-428 (Hodgkin's Lymphoma)
How it was run: as §1

[16] = test system: NCI-H209 (Small Cell Lung Carcinoma)
How it was run: as §1

Structure (SMILES) | Bliss excess [1] | Bliss excess [2] | Bliss excess [3] | Bliss excess [4] | Bliss excess [5] | Bliss excess (KS-1 (Glioblastoma)) | Bliss excess [6] | Bliss excess [7] | Bliss excess [8] | Bliss excess (CAL-72 (Osteosarcoma)) | Bliss excess [9] | Bliss excess (BE2-M17 (Neuroblastoma)) | Bliss excess [10] | Bliss excess [11] | Bliss excess [12] | Bliss excess (LOXIMVI (Melanoma)) | Bliss excess [13] | Bliss excess [14] | Bliss excess [15] | Bliss excess [16]
Cc1c2c(nn1C)CSCc1cc(n(C)n1)CSc1cc(c3ccccc3c1)OCCCc1c(C(=O)O)n(C)c3c-2c(Cl)ccc13 [AZD5991] + C=CCn1c(=O)c2cnc(Nc3ccc(N4CCN(C)CC4)cc3)nc2n1-c1cccc(C(C)(C)O)n1 [AZD1775] (first compound max 1 µM, partner max 1 µM) | 0.0126 | -0.0224 | -0.0096 | -0.0011 | -0.0078 | -0.0553 | -0.0715 | -0.0097 | -0.0259 | 0.0098 | -0.0275 | -0.03 | 0.0349 | 0.0108 | -0.0197 | -0.029 | -0.0141 | -0.0292 | 0.0145 | 0.0103
COc1nnc2ccc(N3CCC(c4ccc(OCCN5CCN(C)C(=O)[C@H]5C)cc4)CC3)nn12 [AZD5153] + C[C@@H]1COCCN1C2=NC(=NC(=C2)C3(CC3)[S@](=N)(=O)C)C4=C5C=CNC5=NC=C4 [AZD6738] (first compound max 1 µM, 7x7, partner max 10 µM) | 0.0824 | -0.0406 | -0.0276 | 0.0821 | -0.003 | -0.0349 | -0.0192 | -0.0227 | 0.113 | -0.0087 | -0.031 | 0.0293 | -0.0822 | -0.0397 | 0.0091 | -0.0413 | -0.033 | 0.0648 | 0.009 | 0.019
NC1(C(=O)N[C@@H](CCO)c2ccc(Cl)cc2)CCN(c2ncnc3[nH]ccc23)CC1 [Capivasertib] + C[C@@H]1COCCN1C2=NC(=NC(=C2)C3(CC3)[S@](=N)(=O)C)C4=C5C=CNC5=NC=C4 [AZD6738] (first compound max 10 µM, 7x7, partner max 10 µM) | -0.032 | -0.0926 | -0.0357 | -0.128 | 0.0014 | -0.0366 | -0.0884 | -0.0877 | -0.0228 | -0.0202 | -0.0246 | -0.0034 | -0.0216 | -0.0076 | 0.0058 | -0.0014 | -0.0607 | -0.027 | -0.0004 | -0.0054
Cc1c2c(nn1C)CSCc1cc(n(C)n1)CSc1cc(c3ccccc3c1)OCCCc1c(C(=O)O)n(C)c3c-2c(Cl)ccc13 [AZD5991] + C[C@@H]1COCCN1C2=NC(=NC(=C2)C3(CC3)[S@](=N)(=O)C)C4=C5C=CNC5=NC=C4 [AZD6738] (first compound max 1 µM, 7x7, partner max 10 µM) | 0.0293 | 0.0217 | -0.0248 | -0.0153 | 0.0054 | 0.0147 | -0.0451 | 0.0135 | -0.0057 | 0.0213 | 0.0008 | 0.0574 | 0.0409 | 0.0225 | -0.0046 | -0.0373 | 0.0401 | -0.0028 | 0.023 | 0.138
NC1(C(=O)N[C@@H](CCO)c2ccc(Cl)cc2)CCN(c2ncnc3[nH]ccc23)CC1 [Capivasertib] + CC(C)n1c(=O)n(C)c2cnc3cc(F)c(-c4ccc(OCCCN5CCCCC5)nc4)cc3c21 [AZD1390] (first compound max 10 µM, 7x7, partner max 0.3 µM) | -0.044 | -0.0537 | -0.0829 | -0.0651 | -0.0081 | -0.0969 | -0.0078 | -0.0455 | -0.045 | -0.133 | -0.0018 | -0.115 | -0.0852 | -0.0439 | -0.0493 | -0.0063 | -0.0278 | -0.0189 | -0.0352 | -0.037
